Data published in PubChem BioAssay AID1963839 (Molecular Pharmacology Branch, DTP, NCI, 2024).

Test system: 817829-284-R-J1-PDC complex spheroid viability
Assay: Anticancer human tumor 817829-284-R-J1-PDC patient-derived colon adenocarcinoma cell line growth inhibition [POLQ]
Settings: for IC50: curve of first compound; for viability, T/C: stronger effect = lower value
Protocol: Multicellular complex tumor spheroid response to Polymerase (POL) inhibitors (novobiocin, ART-558, RP6685) in combination with a variety of drugs and investigational agents in selected tumor cell lines
The POL inhibitors (novobiocin, ART-558, and RP6685) were evaluated both individually and in combination with standard of care and investigational anticancer small molecules within a complex spheroid model of solid tumors. . Complex spheroids include a stromal component modeled by human endothelial cells (HUVEC) and fibroblasts modeled by human mesenchymal stem cells (MSCs). The concentration ranges selected for each drug and investigational agent were based upon clinically achievable concentrations if the clinical Cmax of the agent was known.
Compounds. The drugs and investigational agents: novobiocin (NSC847541), ART-558 (NSC835418), RP-6685 (NSC848927), peposertib (NSC802822), ceralasertib (NSC780249), elimusertib (NSC800525), camonsertib (NSC841442), AZD-1390 (NSC803789), olaparib (NSC753686), talazoparib (NSC767125), rucaparib (NSC756644), sotorasib (NSC818433), MRTX-1133 (NSC836407), SN-38 (NSC673596), topotecan (NSC609699), epotoside (NSC141540), doxorubicin (NSC123127), gemcitabine (NSC613327), 5-fluorouracil (NSC19893), paclitaxel (NSC125973), vemurafenib (NSC761431), MSA-2 (NSC828583), SN-011 (NSC837082), adavosertib (NSC754352), prexasertib (NSC758257), carboplatin (NSC241240) and oxaliplatin (NSC266046), were obtained from the National Cancer Institute (NCI) Developmental Therapeutics Program Chemical Repository (21). The FDA-approved anticancer drug set is available from the Developmental Therapeutics Program at https://dtp.cancer.gov/organization/dscb/obtaining/. […] The stock solutions were prepared in dimethyl sulfoxide (DMSO, Sigma-Aldrich, St. Louis, MO, cat. D2650), except for the platinum compounds which were prepared in saline (Quality Biological, Gaithersburg, MD, cat. 114-055-101), at 800-fold the tested concentration and stored at -70 degrees C prior to their use. All drugs and investigational agents were tested over a range starting from a high concentration at or near the clinical Cmax and decreasing in half-log increments. If the clinical Cmax for an agent had not been determined, the highest concentration tested was 10 microM, except for SN-38, which was tested at a high concentration of 1 microM.
Cell Culture. All cells were maintained in an incubator at 37 degrees C and 5% CO2 with 95% humidity. The PDC lines were cultured according to standard operating procedures established by the NCI PDMR (https://pdmr.cancer.gov). Table 3 of the manuscript, lists the cell lines along with the number of the three cell types plated to form the mct-spheroids and media for tumor cell growth. After thawing, all PDC lines, except 997537-175-T-J1-PDC and 415267-285-R-J2-PDC, were cultured in Matrigel-coated flasks prepared with a working solution of 1X Ham's F-12 nutrient mix, without supplementation (Thermo Fisher Scientific, cat. 11765054), 100 U/mL penicillin-streptomycin (Thermo Fisher Scientific, cat. 15140122), and 2.5% Matrigel (Corning Inc., Corning, NY, cat. 354248) for the first three passages. The two PDC lines 997537-175-T-J1-PDC and 415267-285-R-J2-PDC were cultured on uncoated flasks. The 857933-349-R-J2-PDC line was cultured in 6C/Colon 1B media containing advanced DMEM/F-12 (Thermo Fisher Scientific, cat. 12634028), 10 mM HEPES (Thermo Fisher Scientific, cat. 15630080), 1X GlutaMAX supplement (Thermo Fisher Scientific, cat. 35050061), 0.1 mg/mL primocin (InvivoGen, San Diego, CA, cat. ant-pm-2), 10% defined fetal bovine serum, heat inactivated (HyClone Laboratories Inc., Logan, UT, cat. SH30070.03HI), 50% L-WRN conditioned media (ATCC, cat. CRL-3276), 1.25 mM N-Acetyl-L-cysteine (Sigma-Aldrich, cat. A9165), 10 mM nicotinamide (Sigma-Aldrich, cat. N0636), 1X B-27 supplement (Thermo Fisher Scientific, cat. 17504044), 1X N-2 supplement (Thermo Fisher Scientific, cat. […]

[1] = second compound 0.0316 µM, first compound 0.0316 µM
[2] = second compound 0.0316 µM, first compound 0.1 µM
[3] = second compound 0.0316 µM, first compound 0.316 µM
[4] = second compound 0.0316 µM, first compound 1 µM
[5] = second compound 0.0316 µM, first compound 3.16 µM
[6] = second compound 0.0316 µM, first compound 10 µM
[7] = second compound 0.1 µM, first compound 0.0316 µM
[8] = second compound 0.1 µM, first compound 0.1 µM
[9] = second compound 0.1 µM, first compound 0.316 µM
[10] = second compound 0.1 µM, first compound 1 µM
[11] = second compound 0.1 µM, first compound 3.16 µM
[12] = second compound 0.1 µM, first compound 10 µM
[13] = second compound 0.316 µM, first compound 0.0316 µM
[14] = second compound 0.316 µM, first compound 0.1 µM
[15] = second compound 0.316 µM, first compound 0.316 µM
[16] = second compound 0.316 µM, first compound 1 µM
[17] = second compound 0.316 µM, first compound 3.16 µM
[18] = second compound 0.316 µM, first compound 10 µM
[19] = second compound 1 µM, first compound 0.0316 µM
[20] = second compound 1 µM, first compound 0.1 µM
[21] = second compound 1 µM, first compound 0.316 µM
[22] = second compound 1 µM, first compound 1 µM
[23] = second compound 1 µM, first compound 3.16 µM
[24] = second compound 1 µM, first compound 10 µM
[25] = second compound 3.16 µM, first compound 0.0316 µM
[26] = second compound 3.16 µM, first compound 0.1 µM
[27] = second compound 3.16 µM, first compound 0.316 µM
[28] = second compound 3.16 µM, first compound 1 µM
[29] = second compound 3.16 µM, first compound 3.16 µM
[30] = second compound 3.16 µM, first compound 10 µM
[31] = second compound 10 µM, first compound 0.0316 µM
[32] = second compound 10 µM, first compound 0.1 µM
[33] = second compound 10 µM, first compound 0.316 µM
[34] = second compound 10 µM, first compound 1 µM
[35] = second compound 10 µM, first compound 3.16 µM
[36] = second compound 10 µM, first compound 10 µM
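Note: spheroids exposed to compounds for 7 days.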
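Throughout, for viability, T/C: 100% = DMSO vehicle-treated spheroids.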

O=C(c1cc(Cc2n[nH]c(=O)c3ccccc23)ccc1F)N1CCN(C(=O)C2CC2)CC1 + COC1C(OC(N)=O)C(O)C(Oc2ccc3c(O)c(NC(=O)c4ccc(O)c(CC=C(C)C)c4)c(=O)oc3c2C)OC1(C)C
IC50 (second compound 0.0316 µM): 2.18 µM
IC50 (second compound 0.1 µM): 4.58 µM
IC50 (second compound 0.316 µM): 3.28 µM
IC50 (second compound 1 µM): 4.29 µM
IC50 (second compound 3.16 µM): 3.83 µM
IC50 (second compound 10 µM): 4.49 µM
viability, T/C [1]: 71.5%
viability, T/C [2]: 109%
viability, T/C [3]: 88.3%
viability, T/C [4]: 61.2%
viability, T/C [5]: 49.8%
viability, T/C [6]: 33.7%
viability, T/C [7]: 94.9%
viability, T/C [8]: 86.5%
viability, T/C [9]: 83.7%
viability, T/C [10]: 68.2%
viability, T/C [11]: 68.7%
viability, T/C [12]: 25.8%
viability, T/C [13]: 105%
viability, T/C [14]: 98.4%
viability, T/C [15]: 85.7%
viability, T/C [16]: 90.1%
viability, T/C [17]: 50%
viability, T/C [18]: 32.2%
viability, T/C [19]: 88.3%
viability, T/C [20]: 99.9%
viability, T/C [21]: 81.4%
viability, T/C [22]: 75.7%
viability, T/C [23]: 61.2%
viability, T/C [24]: 24.3%
viability, T/C [25]: 114%
viability, T/C [26]: 92.5%
viability, T/C [27]: 75.2%
viability, T/C [28]: 70.3%
viability, T/C [29]: 63.2%
viability, T/C [30]: 30.2%
viability, T/C [31]: 90.5%
viability, T/C [32]: 95.3%
viability, T/C [33]: 68.8%
viability, T/C [34]: 102%
viability, T/C [35]: 60.7%
viability, T/C [36]: 25.7%

O=c1[nH]cc(F)c(=O)[nH]1 + COC1C(OC(N)=O)C(O)C(Oc2ccc3c(O)c(NC(=O)c4ccc(O)c(CC=C(C)C)c4)c(=O)oc3c2C)OC1(C)C
IC50 (second compound 0.0316 µM): 2.4 µM
IC50 (second compound 0.1 µM): 8.96 µM
IC50 (second compound 0.316 µM): 3.42 µM
IC50 (second compound 1 µM): 2.92 µM
IC50 (second compound 3.16 µM): 2.13 µM
IC50 (second compound 10 µM): 8.93 µM
viability, T/C [1]: 97.6%
viability, T/C [2]: 144%
viability, T/C [3]: 102%
viability, T/C [4]: 68.8%
viability, T/C [5]: 42.6%
viability, T/C [6]: 43.1%
viability, T/C [7]: 90.7%
viability, T/C [8]: 94%
viability, T/C [9]: 92.5%
viability, T/C [10]: 77.6%
viability, T/C [11]: 50.2%
viability, T/C [12]: 50%
viability, T/C [13]: 80%
viability, T/C [14]: 84.2%
viability, T/C [15]: 70%
viability, T/C [16]: 70.2%
viability, T/C [17]: 51.1%
viability, T/C [18]: 26.6%
viability, T/C [19]: 98.3%
viability, T/C [20]: 86.8%
viability, T/C [21]: 95.1%
viability, T/C [22]: 86.5%
viability, T/C [23]: 47.2%
viability, T/C [24]: 47.3%
viability, T/C [25]: 128%
viability, T/C [26]: 114%
viability, T/C [27]: 108%
viability, T/C [28]: 57.8%
viability, T/C [29]: 50.4%
viability, T/C [30]: 39.9%
viability, T/C [31]: 107%
viability, T/C [32]: 101%
viability, T/C [33]: 77.9%
viability, T/C [34]: 84.3%
viability, T/C [35]: 62.3%
viability, T/C [36]: 47.4%
